Experimental findings from ChEMBL document CHEMBL1129725, “Synthesis and antitumor activity of 7-substituted 20(RS)-camptothecin analogues” (Bioorg Med Chem Lett, 1996) are described below.

What all share (type): functional, cell-based
Assay [1] relates to L1210. The experiment in a line: Cytotoxicity against L1210 tumor cell lines in mice. Conditions: Mus musculus.
The subject of assay [2] is A 172. The experiment in a line: Cytotoxicity against A-172 human tumor cell lines.
Assay [3] concerns Caov-3 cell line. Kind of assay: Cytotoxicity against CAOV-3 human tumor cell lines.
Assay [4] deals with KATO III stomach cancer cell line. Kind of assay: Cytotoxicity against KATO-III human tumor cell lines.
Assay [5] relates to DLD-1. Kind of assay: Cytotoxicity against DLD-1 human tumor cell lines.

Molecules are shown by their SMILES.

Broadly, the IC50 is the concentration at which inhibition is half-maximal. Lower therefore signals greater potency. For `CCC1(O)C(=O)OCc2c1cc1n(c2=O)Cc2c-1nc1ccccc1c2CCN1CCCCC1` (stereo not given), the IC50 was over 100000 nM in assay [1]; 51100 nM in assay [2]; over 100000 nM in assay [3]; over 100000 nM in assay [4]; over 100000 nM in assay [5].

For the molecule `CCC1(O)C(=O)OCc2c1cc1n(c2=O)Cc2c-1nc1ccccc1c2CCN(C(=O)OCc1ccccc1)C(C)C` (stereo not given), the IC50 came out at 1290 nM in assay [1]; 950 nM in assay [2]; 41 nM in assay [3]; 1850 nM in assay [4]; 1830 nM in assay [5].

Take `CCC1(O)C(=O)OCc2c1cc1n(c2=O)Cc2c-1nc1ccccc1c2CCN(CCO)C(=O)OCc1ccccc1` (stereo not given): the IC50 in assay [1] was determined as 2900 nM; in assay [2] it was 1920 nM; in assay [3], 1140 nM; in assay [4] it was 13800 nM; in assay [5], 9720 nM.

In the case of `CCN(CCc1c2c(nc3cc4c(cc13)OCO4)-c1cc3c(c(=O)n1C2)COC(=O)C3(O)CC)C(=O)OCc1ccccc1` (stereo not given), the IC50 stood at 3520 nM in assay [1]; 2830 nM in assay [2]; 1740 nM in assay [3]; 23100 nM in assay [4]; 24200 nM in assay [5].

Take `CCC1(O)C(=O)OCc2c1cc1n(c2=O)Cc2c-1nc1ccccc1c2CCNC(C)C` (stereo not given): the IC50 in assay [1] came out at 130 nM; in assay [2] it was 110 nM; in assay [3], 41 nM; in assay [4] it was 40 nM; in assay [5] it was 110 nM.

`CCC1(O)C(=O)OCc2c1cc1n(c2=O)Cc2c-1nc1ccccc1c2CCN1CCCC1` (stereo not given): the IC50 in assay [1], in assay [2], in assay [3], in assay [4] and in assay [5] was over 100000 nM each time.

Take `CC[C@@]1(O)C(=O)OCc2c1cc1n(c2=O)Cc2cc3ccccc3nc2-1` [CAMPTOTHECIN]: the IC50 came out at 180 nM in assay [1]; 140 nM in assay [2]; 30 nM in assay [3]; 1170 nM in assay [4]; 210 nM in assay [5].

As for `CCC1(O)C(=O)OCc2c1cc1n(c2=O)Cc2c-1nc1ccccc1c2CCN(Cc1ccccc1)C(=O)OCc1ccccc1` (stereo not given), the IC50 in assay [1] is 700 nM; in assay [2] it was 1180 nM; in assay [3], 1970 nM; in assay [4], 14000 nM; in assay [5], 1060 nM.

As to `CCC1(O)C(=O)OCc2c1cc1n(c2=O)Cc2c-1nc1ccccc1c2CCNCCOC(C)=O` (stereo not given), the IC50 in assay [1] stood at 4360 nM; in assay [2], 740 nM; in assay [3] it was 880 nM; in assay [4], 820 nM; in assay [5] it was 3480 nM.

As for `CCC1(O)C(=O)OCc2c1cc1n(c2=O)Cc2c-1nc1ccccc1c2CCNCc1ccccc1` (stereo not given), the IC50 in assay [1] is 4030 nM; in assay [2] it was 280 nM; in assay [3], 170 nM; in assay [4], 850 nM; in assay [5], 310 nM.

As to `CCC1(O)C(=O)OCc2c1cc1n(c2=O)Cc2c-1nc1ccccc1c2CCN1CCOCC1` (stereo not given), the IC50 was over 100000 nM in assay [1]; 81800 nM in assay [2]; 42200 nM in assay [3]; 82000 nM in assay [4]; over 100000 nM in assay [5].

As for `CCC1(O)C(=O)OCc2c1cc1n(c2=O)Cc2c-1nc1ccccc1c2CCN(CCOC(C)=O)C(=O)OCc1ccccc1` (stereo not given), the IC50 in assay [1] worked out at 9080 nM; in assay [2] it was 18600 nM; in assay [3], 4480 nM; in assay [4], 16600 nM; in assay [5], 15800 nM.

For the molecule `CCCN(CCc1c2c(nc3ccccc13)-c1cc3c(c(=O)n1C2)COC(=O)C3(O)CC)C(=O)OCc1ccccc1` (stereo not given), the IC50 came out at 1090 nM in assay [1]; 2330 nM in assay [2]; 140 nM in assay [3]; 510 nM in assay [4]; 550 nM in assay [5].

With `CCC1(O)C(=O)OCc2c1cc1n(c2=O)Cc2c-1nc1ccccc1c2CCNCCO` (stereo not given), the IC50 in assay [1] worked out at 13000 nM; in assay [2], 23300 nM; in assay [3] it was 4630 nM; in assay [4] it was 47800 nM; in assay [5], 8790 nM.

Regarding `CCNCCc1c2c(nc3ccccc13)-c1cc3c(c(=O)n1C2)COC(=O)C3(O)CC` (stereo not given), the IC50 worked out at 640 nM in assay [1]; 85 nM in assay [2]; 200 nM in assay [3]; 360 nM in assay [4]; 440 nM in assay [5].
